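48-hour exposure; five concentrations; linearly interpolated endpoints. TGI: total growth inhibition.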 Where a SMILES comes first, the peptide text is derived from it. [ ]: non-standard residue; d: D form. The star is where a group is joined. Cbz = O=C(OCc1ccccc1)*; Boc = CC(C)(C)OC(=O)*; Aib = CC(C)(N)C(=O)O; OBn = c1ccc(CO*)cc1; OtBu = CC(C)(C)O*; βAla = NCCC(=O)O
Key:
Assay in all cases: DTP human tumour cell line panel, 48 h
EKVX NSCLC = system: EKVX NSCLC
SNB-19 CNS = system: SNB-19 CNS
K-562 leukemia = system: K-562 leukemia
A549 NSCLC = system: A549 NSCLC
SN12C renal = system: SN12C renal
OVCAR-5 ovarian = system: OVCAR-5 ovarian
A498 renal = system: A498 renal
NCI-H226 lung = system: NCI-H226 lung
DU-145 prostate = system: DU-145 prostate
HCT-116 colon = system: HCT-116 colon

SMILES | TGI (EKVX NSCLC) | TGI (SNB-19 CNS) | TGI (K-562 leukemia) | TGI (A549 NSCLC) | TGI (SN12C renal) | TGI (OVCAR-5 ovarian) | TGI (A498 renal) | TGI (NCI-H226 lung) | TGI (DU-145 prostate) | TGI (HCT-116 colon)
CC(C)(C)OC(=O)CC(NC(=O)OC(C)(C)C)C(=O)NC(CCCCNC(=O)OCc1ccccc1)C(=O)NC(C)(C)C(=O)NCCC(=O)OCc1ccccc1 (centres undefined) (Boc-D(OtBu)K(Cbz)[Aib][βAla]-OBn; configuration not given here) | > 100 µM | > 100 µM | > 100 µM | > 100 µM | > 100 µM | > 100 µM | > 100 µM | > 100 µM | > 100 µM | > 100 µM
O=C(Nc1cccc(-c2cn3ccccc3n2)c1)c1ccncc1 | > 100 µM | > 100 µM | 61 µM | > 100 µM | > 100 µM | > 100 µM | > 100 µM | > 100 µM | > 100 µM | > 100 µM
COc1cc(C2C3=C(COC3=O)OC(C)(C)Oc3cc4c(cc32)OCO4)cc(OC)c1OC (centres undefined) | > 100 µM | – | > 36 µM | > 100 µM | > 100 µM | > 100 µM | 1.49 µM | > 100 µM | – | 6.65 µM
CCOC(=O)c1c(N2CCOCC2)[nH]c(=O)c(C(c2ccc(OC)cc2)c2c(O)c(C(=O)OCC)c(N3CCOCC3)[nH]c2=O)c1O | > 100 µM | > 100 µM | > 100 µM | > 100 µM | > 100 µM | > 100 µM | > 100 µM | > 100 µM | > 100 µM | > 100 µM
C/C=C/[C@H]1O[C@@](OC)([C@@H](C)[C@H](O)[C@H](C)[C@H]2OC(=O)/C(OC)=C/C(C)=C/[C@@H](C)[C@@H](O)[C@@H](C)[C@@H](O)[C@H](C)C/C(C)=C/C=C/[C@@H]2OC)CC(OC2CC(O)C(OC(N)=O)C(C)O2)[C@@H]1C (some centres undefined) | 12.8 µM | 18.1 µM | – | 14.8 µM | 9.3 µM | 17 µM | 21 µM | 14.1 µM | 18.8 µM | 0.197 µM
NC(N)=N/N=C/c1nc2sccn2c1[N+](=O)[O-] | > 100 µM | > 100 µM | 85.8 µM | > 100 µM | > 100 µM | > 100 µM | > 100 µM | > 100 µM | 57.1 µM | 59.6 µM
O=c1[nH]nc(Cc2ccc(Cl)cc2)n1O | > 100 µM | > 100 µM | > 100 µM | > 100 µM | > 100 µM | > 100 µM | > 100 µM | > 100 µM | > 100 µM | > 100 µM
COc1cc(/C=C2/SC(c3ccccc3)N(c3cccc([N+](=O)[O-])c3)C2=O)cc(OC)c1OC (centres undefined) | > 100 µM | > 100 µM | > 100 µM | > 100 µM | > 100 µM | > 100 µM | > 100 µM | > 100 µM | > 100 µM | > 100 µM
Cc1ccc2c(c1)OC1Nc3ccccc3C1=C2O (centres undefined) | 86.9 µM | > 100 µM | > 100 µM | > 100 µM | 93.4 µM | > 100 µM | 45.5 µM | 89.1 µM | > 100 µM | 65.1 µM
COC1/C=C/C(C)C(C(C)C(OC)C(C)CCC(=O)C(C)C(CCC(=O)O)OC)OC(=O)/C=C/C=C(\C)CC(OC)CC2=CC(=O)O[C@@H](C(C)C(OC)CC(OC)/C=C/C(C)C(OC)C1)[C@H]2O (some centres undefined) | > 5 µM | > 5 µM | > 5 µM | > 5 µM | > 5 µM | > 5 µM | 0.343 µM | 2.13 µM | > 5 µM | > 5 µM
COC(=O)C(COC(=O)/C=C/c1ccc(OC(C)=O)c(OC(C)=O)c1)OC(=O)/C=C/c1ccc(OC(C)=O)c(OC(C)=O)c1 (centres undefined) | 36.9 µM | 22.2 µM | 31.2 µM | 41.6 µM | 27.8 µM | 36.8 µM | 43.1 µM | 90.5 µM | 24.7 µM | 16.3 µM
CC(C)(C)N1Cc2ccccc2/C(=C/Sc2ccccc2)C1=O | 34.2 µM | 30.9 µM | > 100 µM | 37.6 µM | 23.8 µM | 39.8 µM | 35.4 µM | 25.9 µM | 32.7 µM | 19.8 µM
CC1(C)[C@@H]2C[C@H]1c1cnc(-c3ccccn3)cc1C2[C@@H]1c2cc(-c3ccccn3)ncc2[C@@H]2C[C@H]1C2(C)C (some centres undefined) | > 100 µM | > 100 µM | > 100 µM | > 100 µM | > 100 µM | > 100 µM | > 100 µM | > 100 µM | > 100 µM | > 100 µM
COc1ccc(NC2Oc3cc4c(cc3C(c3cc(OC)c(O)c(OC)c3)C2C)OCO4)cc1 (centres undefined) | – | > 100 µM | 12.3 µM | 23.5 µM | 11.7 µM | 73.7 µM | 31.7 µM | 93.6 µM | > 100 µM | 29.6 µM
Nc1nc2c(ncn2C2C=CC(CO)O2)c(=O)[nH]1 (centres undefined) | – | > 100 µM | – | – | > 100 µM | > 100 µM | > 100 µM | > 100 µM | > 100 µM | > 100 µM
COC(=O)c1cncc2c1CC1C3(C(=O)OC)C=NC(C4C(CO)=CCC43)C21C (centres undefined) | > 100 µM | > 100 µM | – | > 100 µM | > 100 µM | > 100 µM | > 100 µM | > 100 µM | > 100 µM | > 100 µM
Cc1ccc(O)c(C2=NNC(c3cccc(Br)c3)C2)c1 (centres undefined) | > 100 µM | 76.3 µM | > 100 µM | > 100 µM | > 100 µM | > 100 µM | – | > 100 µM | > 100 µM | > 100 µM
O=C(O)c1ccc(Nc2nc3cc(C(F)(F)F)ccc3nc2C(=O)O)cc1 | > 100 µM | > 100 µM | > 100 µM | – | > 100 µM | > 100 µM | > 100 µM | > 100 µM | > 100 µM | > 100 µM
COc1ccc(OC)c2cc(Cc3ccc(N(C)C)cc3)c(=O)c(Cc3ccc(N(C)C)cc3)cc12 | > 100 µM | > 100 µM | > 100 µM | > 100 µM | > 100 µM | > 100 µM | 96.2 µM | > 100 µM | > 100 µM | > 100 µM
O=C1NC(N/N=C\c2ccccc2)=N/C1=C/c1ccc(Cl)cc1 | 67.4 µM | 35.9 µM | > 100 µM | 62.9 µM | 54.6 µM | 94.1 µM | – | 43.3 µM | > 100 µM | 71.4 µM
